Data reported in patent US12721840B2, “Methods of treating glioblastoma multiforme using combination therapy” (MediciNova, Inc., priority 2021, dated 2026).

Experiments:
[1] = system: GBM orthotopic tumors (SB28 cells); assay: Murine GBM model: survival of mice bearing orthotopic syngeneic SB28 tumors; type: in vivo; settings: syngeneic mouse model, 20,000 SB28 cells; ibudilast 50 mg/kg, anti-PD1 25 μg/dose; 3 intraperitoneal injections 3 days apart from day 7 post-engraftment; n=10 male mice/group; control 17 days
Experimental: FIGURE depicts results from a murine glioblastoma model (ibudilast treatment in a syngeneic mouse model (20,000 SB28 cells) synergized with anti-PD1), in which mice are treated with ibudilast, an anti-PD-1 antibody, or a combination of ibudilast and an anti-PD-1 antibody. Isotype serves as negative control for the anti-PD-1 antibody and vehicle serves as negative control for ibudilast. Treatment was initiated at day 7 post-engraftment with 3 intraperitoneal injections 3 days apart; n=10 mice/group (male); median survival provided for each group, *p<0.05, **p<0.01, ***p<0.001 as assessed by log-rank (colored stars indicate comparison to each control group).
Mice bearing GBM orthotopic tumors were subjected to treatment with a PD-1 antibody in the presence or absence of ibudilast (or to ibudilast alone) and evaluated for their survival after the start of treatment. More particularly, ibudilast treatment (50 mg/kg) was performed in a syngeneic mouse model (20,000 SB28 cells) synergized with anti-PD1 (25 μg/dose). Treatment was initiated at day 7 post-engraftment with 3 intraperitoneal injections 3 days apart; n=10 mice/group (male).

[2] = literature statement (Sanftner et al Xenobiotica 2009; Chen et al. 2002); cited from earlier work

**Q.** Which median survival [1] does the source give for `CC(C)C(=O)c1c(C(C)C)nn2ccccc12` [Ibudilast, 3-isobutyryl-2-isopropylpyrazolo[1,5-a]pyridine] here?
**A.** did not impact median survival

**Q.** What about the “penetration into the central nervous system (CNS)” value [2] of the same molecule?
**A.** good CNS penetration

**Q.** Which “penetration into the central nervous system (CNS)” value [2] does the source give for `COc1ccc(C2CNC(=O)C2)cc1OC1CCCC1` (stereo not drawn) [rolipram] here?
**A.** poor penetration into the central nervous system
